What all share (assay type): functional
Test [1] relates to Candida tropicalis. Nature of the test: Anti-fungal activity against Candida tropicalis assessed as inhibition of fungal growth.
The test system of test [2] is Candida tropicalis. Nature of the test: Antifungal activity against Candida tropicalis ATCC 1369 assessed as inhibition of fungal growth by CLSI protocol based microdilution method.
In a further test the test system is Trichophyton violaceum. Nature of the test: Antifungal activity against Trichophyton violaceum.
For another test, the system named is Epidermophyton floccosum. Nature of the test: Antifungal activity against Epidermophyton floccosum.
The subject of the next test is Nakaseomyces glabratus. Nature of the test: Antifungal activity against Candida glabrata assessed as reduction in fungal growth. Details: concentration or dose not given beside the values.
For test [3], the system named is Candida albicans. Description: Antifungal activity against Candida albicans ATCC 10231 assessed as fungal growth inhibition incubated for 24 hrs by CLSI protocol based microbroth dilution assay.
Test [4] has as its system Candida albicans. Description: Antifungal activity against Candida albicans ATCC 10231 assessed as growth inhibition measured after 48 hrs by CLSI based method.
Test [5] relates to Trichophyton interdigitale. Nature of the test: Antifungal activity against Trichophyton interdigitale.
A further test has as its system Trichophyton rubrum. Description: Antifungal activity against Trichophyton rubrum assessed as fungal growth inhibition incubated for 48 hrs by microplate reader assay.
The subject of another test is Trichophyton tonsurans. Nature of the test: Antifungal activity against Trichophyton tonsurans.
The subject of test [6] is Trichophyton mentagrophytes. Nature of the test: Antifungal activity against Trichophyton mentagrophytes.
For test [7], the system named is Candida albicans. Description: Antifungal activity against Candida albicans assessed as reduction in microbial growth.
Test [8] relates to Candida albicans. Nature of the test: Antifungal activity against fluconazole-resistant Candida albicans ATCC 10213 assessed as inhibition of fungal growth incubated for 48 hrs by liquid medium dilution method.
Test [9] concerns Candida albicans. Nature of the test: Antifungal activity against fluconazole-resistant Candida albicans MFBF 11100 assessed as inhibition of fungal growth incubated for 48 hrs by liquid medium dilution method.
Test [10] concerns Cryptococcus neoformans. Nature of the test: Antifungal activity against Cryptococcus neoformans ATCC 34877 assessed as reduction in fungal growth incubated for 72 hrs by liquid based microdilution method.
Test [11] is described as follows: Antifungal activity against Cryptococcus gattii VGI ATCC LMM 818 assessed as reduction in fungal growth incubated for 72 hrs by liquid based microdilution method.
Test [12] relates to Cryptococcus neoformans. Description: Antifungal activity against Cryptococcus neoformans H99 assessed as reduction in fungal growth incubated for 48 hrs by liquid based microdilution method.
Test [13] is described as follows: Antifungal activity against Cryptococcus gattii VGI ATCC 14116 assessed as reduction in fungal growth incubated for 72 hrs by liquid based microdilution method.
The subject of test [14] is Cryptococcus neoformans. Nature of the test: Antifungal activity against Cryptococcus neoformans ATCC 34877 assessed as reduction in fungal growth incubated for 48 hrs by liquid based microdilution method.
Test [15] concerns Candida albicans. Nature of the test: Antifungal activity against Candida albicans assessed as fungal growth inhibition.
For test [16], the system named is Aspergillus flavus. Nature of the test: Antifungal activity against Aspergillus flavus assessed as fungal growth inhibition.
In test [17] the test system is Aspergillus flavus. Nature of the test: Antifungal activity against Aspergillus flavus assessed as reduction in fungal growth incubated for 24 hrs by two-fold serial dilution method. Set-up: scale not given: the % may be the effect or the level left.
Test [18] relates to Candida albicans. Nature of the test: Antifungal activity against Candida albicans ATCC 2091 assessed as reduction in fungal growth.
The test system of the next test is Microsporum canis. Description: Antifungal activity against Microsporum canis assessed as inhibition of fungal growth. Set-up: scale not given: the % may be the effect or the level left.
The subject of test [19] is Candida albicans. Description: Antifungal activity against Candida albicans assessed as fungal growth inhibition at 5 ug/ml incubated for 24 hrs by CLSI protocol based microbroth dilution assay relative to control. Details: scale not given: the % may be the effect or the level left. Particulars: dose 5 µg/ml.
Test [20] relates to Candida albicans. Description: Antifungal activity against Candida albicans SC5314 assessed as reduction in fungal growth incubated for 72 hrs by broth micro-dilution method.
The subject of test [21] is Candida albicans. Nature of the test: Antifungal activity against Candida albicans.
Test [22] deals with Aspergillus flavus. Nature of the test: Antifungal activity against Aspergillus flavus ATCC 16870 assessed as inhibition of growth incubated for 48 hrs by two-fold serial dilution method.
In test [23] the test system is Aspergillus flavus. Description: Antifungal activity against Aspergillus flavus.

Each structure is given as a SMILES string. Converted amounts (≈) assume the structure as drawn.

As for `Cc1ccc(-c2ccc(-c3ccccn3)nc2)cc1`, the MIC in the test on Candida tropicalis [1] is at most 12.7 µM; in the test on Candida tropicalis [2], at most 20.4 µM.
In the case of `c1ccc(-c2ccc(-c3ccccn3)nc2)cc1`, the MIC against Trichophyton violaceum and in the test with Epidermophyton floccosum was 26.9 µM (≈ 6.25 µg/mL) throughout.
For the compound `Cc1ccc(S(=O)(=O)Nc2ncccn2)cc1`, the Activity with Nakaseomyces glabratus came to 53%.
For `C/C(=N\NC(=S)Nc1ccc(I)cc1)c1ccccn1`, the figures for the minimal inhibitory concentration (MIC) in the test on Candida albicans [3] and with Candida albicans [4] were 6.2 µM (≈ 2.46 µg/mL) and 10.7 µM (≈ 4.24 µg/mL), respectively.
As for `C/C(=N\NC(=S)Nc1ccc([N+](=O)[O-])cc1)c1ccccn1`, the MIC in the test with Candida albicans [4] was determined as 10.7 µM (≈ 3.37 µg/mL).
Take `NS(=O)(=O)c1ccc(/N=C/c2cc(Cl)ccc2O)cc1`: the Activity with Nakaseomyces glabratus came out at 47%.
As for `O=C(O)c1c(O)c(F)c(F)c(F)c1F`, the minimum inhibitory concentration (MIC) (in test [5]; in the test on Trichophyton rubrum; against Trichophyton tonsurans; in [6]) was 25 µg/mL (≈ 119 µM) each time.
Turning to `O=C(O)c1cc(F)c(F)c(F)c1O`, the MIC in the test on Candida albicans [7] is 50 µg/mL.
On to `COc1ccc(/C=N/NC(=O)c2cccnc2)c(O)c1`, for which the figures for the IC90 in the test with Candida albicans [8] and with Candida albicans [9] were 180 nM and 100 nM, respectively.
Take `NC(=S)N/N=C(\N)c1ccccn1`: the MIC90 in the test with Cryptococcus neoformans [10] turned out to be 26.3 µM (≈ 5.13 µg/mL); in [11], 52.5 µM (≈ 10.3 µg/mL); in the test with Cryptococcus neoformans [12], 13.1 µM (≈ 2.55 µg/mL); in [13], 26.3 µM (≈ 5.13 µg/mL).
As to `CCNC(=S)N/N=C(\N)c1ccccn1`, the MIC90 in the test on Cryptococcus neoformans [12] was found to be 13.1 µM (≈ 2.92 µg/mL).
`CNC(=S)N/N=C(\N)c1ccccn1`: the MIC90 in the test with Cryptococcus neoformans [10] was found to be 52 µM (≈ 10.9 µg/mL); with Cryptococcus neoformans [14] it was 2.01 µM (≈ 0.42 µg/mL); in test [11], 52 µM (≈ 10.9 µg/mL).
For the compound `O=c1cc(O)c2c(=O)[nH]c3ccccc3c2o1`, the minimum inhibitory concentration (MIC) was 233 µM (≈ 53.4 µg/mL) in the test with Candida albicans [15] and 226 µM (≈ 51.7 µg/mL) in the test with Aspergillus flavus [16].
Consider `CCCN(CCC)C(=S)NC(=O)c1ccc(Br)o1`, for which the Activity came out at 42% in the test with Nakaseomyces glabratus and 52% in the test with Aspergillus flavus [17].
Regarding `O=C1N[C@@H](Cc2ccc(/N=C/c3ccccc3O)cc2)CO1`, the minimum inhibitory concentration (MIC) with Candida albicans [18] was 12.5 µg/mL (≈ 42.2 µM).
For the compound `CCN(C(=S)NC(=O)c1ccc(Br)o1)C(C)C`, the Activity in the test on Aspergillus flavus [17] amounted to 50%.
`CCCN(CCC)C(=S)NC(=O)c1ccc(C)s1`: the Activity in the test on Microsporum canis is listed as 63%.
Regarding `CNCCC/N=C/c1c(O)ccc2c(C)cc(=O)oc12`, in the test on Candida albicans [18], the minimum inhibitory concentration (MIC) was 12.5 µg/mL (≈ 45.6 µM).
On to `CCCN(CCC)C(=S)NC(=O)c1cccs1`, for which the Activity in the test with Candida albicans [19] is on record as 50%.
With `CCN(C(=S)NC(=O)c1cccs1)C(C)C`, the figures for the Activity with Candida albicans [19] and in the test on Nakaseomyces glabratus were 53% and 43%, respectively.
For `CCN(C(=S)NC(=O)c1ccc(C)s1)C(C)C`, the Activity stood at 62% in the test on Nakaseomyces glabratus and 57% with Aspergillus flavus [17].
Regarding `Oc1ccccc1/N=N/c1ccc(O)c2ccccc12`, the MIC in the test on Candida albicans [20] was determined as 6.25 µg/mL (≈ 23.6 µM); against Candida albicans [21], 50 µg/mL (≈ 189 µM); in the test on Aspergillus flavus [22] it was 6.25 µg/mL (≈ 23.6 µM); against Aspergillus flavus [23], 6.25 µg/mL (≈ 23.6 µM).
`Oc1ccccc1/C=N/c1ccc(Cn2cncn2)cc1`: in the test with Candida albicans [18], the minimum inhibitory concentration (MIC) came out at 12.5 µg/mL (≈ 44.9 µM).

The values are drawn from ChEMBL document CHEMBL6153171, “Redefining Antifungal Treatment: The Innovation of Metal-Based Compounds” (2025).
